Laboratory results taken from US5504097A, “N-hydroxyureas as 5-lipoxygenase inhibitors and inhibitors of oxidative modification of low density lipoprotein” (American Home Products Corporation, priority 1995, dated 1996).
pIC50: −log10 of the molar value.

Key:
Low Density Lipoprotein = test: Inhibition of Copper Ion Mediated Oxidation of Low Density Lipoprotein; assay type: biochemical; details: Cu^+2 mediated oxidation of rabbit or monkey LDL
Protocol: 5. Inhibition of Copper Ion Mediated Oxidation of Low Density Lipoprotein
In this in vitro assay, the inhibition of Cu^+2 mediated oxidation of rabbit or monkey LDL by an invention compound is determined spectrophotometricallly. Oxidation of LDL results in the formation of LDL-diene which absorbs light at 532 nm. Inhibition of oxidation of LDL leads to a decrease in absorbance at 532 nm.
Rabbit or monkey LDL is prepared according to the procedures of Havel, Eder and Gragdon, "The Distribution and Chemical Composition of Ultracentrifugally Separated Lipoproteins in Human Serum,: J, Clin. Invest. 34, 1345-1353 (1955) and Parhtasarathy, Wieland and Steriberg, "A Role for Endothelial Cell Lipoxygenase in the Oxidative Modification of Low Density Lipoprotein," Proc, Natl. Acad. Sci. USA 86, 1046-1050 (1989). Test compound solutions are prepared by dissolving the invention compounds in ethanol at concentrations up to 248 μM. The medium used is Dulbecco's phosphate buffered saline containing 0.5 mg/ml bovine serum albumin. For standards, 0 to 10 μl of an aqueous solution of 1,1,3,3-tetraethoxypropane (1 μmol/ml H2 O) in 4.1 ml of medium is used.
Test compound solution (100 μl) is added to 4 ml of medium in incubation tubes. To each tube is added 10 μl of LDL solution and 25 μl of aqueous copper sulfate solution (1.32 mg/ml H2 O ). The tubes are incubated at 37° C. for 90 minutes and the oxidation reaction quenched by addition of 1 ml of thiobarbituric acid solution (0.67% in 50% acetic acid). The tubes are heated at 90° C. for 1 hour, then chilled in an ice bath and the chromophore extracted into 2 ml of n-butanol. Absorbence is read at 532 nm and the results are reported as nmols of malondialdehyde equivalents.
Significant differences (p<0.05) are determined by the Dunnett T-test or by the Student-Newman-Keuls Test for significant differences between means. The assay is conducted using several concentrations I! of the inhibitor test compounds. The LDL solution concentrations at different experiments were either 1.5 mg/ml, 2.5 mg/ml or 10.3 mg/ml. The IC50 is determined by non-linear regression, plotting log I! vs. % inhibition. (Reference: K. Yagi, Biochemical Medicine 15, 212-216 (1976)).

5-Lipoxygenase = molecular target: T1, 5-Lipoxygenase (Homo sapiens, UniProt P09917); test: Inhibition of 5-Lipoxygenase in Human Whole Blood (LTB4, calcium ionophore A23187); assay type: cell-based
T1 construct: from tissue; host or cells: whole blood of male human donors (endogenous enzyme of the leukocytes)
T1 sequence (P09917 1-674): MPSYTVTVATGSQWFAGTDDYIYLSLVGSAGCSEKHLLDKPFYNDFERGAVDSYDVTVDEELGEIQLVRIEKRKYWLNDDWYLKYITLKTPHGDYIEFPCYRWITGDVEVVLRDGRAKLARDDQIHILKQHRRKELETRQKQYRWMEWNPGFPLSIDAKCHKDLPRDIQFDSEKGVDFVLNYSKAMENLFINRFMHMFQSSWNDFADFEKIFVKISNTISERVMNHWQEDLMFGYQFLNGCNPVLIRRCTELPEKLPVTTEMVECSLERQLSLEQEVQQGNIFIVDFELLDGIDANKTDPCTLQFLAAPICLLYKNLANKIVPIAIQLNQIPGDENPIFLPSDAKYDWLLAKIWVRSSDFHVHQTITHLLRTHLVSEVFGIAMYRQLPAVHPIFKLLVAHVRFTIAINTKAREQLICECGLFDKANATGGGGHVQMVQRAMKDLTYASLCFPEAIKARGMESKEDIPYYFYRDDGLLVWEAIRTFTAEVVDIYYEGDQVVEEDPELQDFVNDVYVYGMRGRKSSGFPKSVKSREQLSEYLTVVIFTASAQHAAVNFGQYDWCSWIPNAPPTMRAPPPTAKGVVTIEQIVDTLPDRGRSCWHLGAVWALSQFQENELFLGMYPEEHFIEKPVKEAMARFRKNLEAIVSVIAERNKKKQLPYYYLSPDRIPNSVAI
Protocol: 1. Inhibition of 5-Lipoxygenase in Human Whole Blood
Blood is obtained in 50-100 ml quantities from male donors. White blood cell counts and differentials are made. Two ml of blood are placed in a 15 ml polypropylene test tube. Test compounds are solubilized in dimethylsulfoxide and diluted in 1:10 in 10% bovine serum albumin in phosphate buffered saline, pH 7.4 resulting in a final dimethylsulfoxide concentration of 0.1% in the blood. Then, solutions of test compounds are added to the blood in a shaking water bath at 37° C. for 10 minutes prior to the addition of 30 μM calcium ionophore (A23187, Sigma). After ionophore administration, whole blood samples are mixed and incubated for 20 minutes at 37° C. in a shaking water bath. Incubation is terminated by placing samples in an ice bath and immediately adding ethylene glycol-bis-(β-aminoethyl ether)-N, N,N',N'-tetraacetic acid (10 mM). Samples are mixed and centrifuged at 1200× g for 15 minutes at 4° C. Preparation of samples for evaluation by RIA or ELISA is carried out by the following protocol. Plasma is removed from sample tubes, placed in 15 ml polypropylene test tubes containing 8 ml methanol, and then vortexed to precipitate protein. Samples are stored at -70° C. overnight. The next day, samples are centrifuged at 200× g for 15 minutes at 4° C. to pellet the precipitate. Samples are dried in a Savant SpeedVac Concentrator, Model SVC 200H, reconstituted to original volume with ice cold RIA or ELISA buffer, and stored at -70° C. until assayed. The assay for eicosanoids (LTB4, T×B2, and PGE2) is performed as described by the manufacturer of the ^3 H!-RIA kit or ELISA kit (LTB4 -Amersham, T×B2 and PGE2 -Caymen Chemical).
The total eicosanoid level in 2 ml of blood is calculated and reported as ng/10^6 neutrophils. Significance is determined by a one-way analysis of variance with least significant difference (LSD) comparisons to control (p≤0.05) and IC50 's (μM) are determined by regression analysis (Finney, 1978). Drug effects are expressed as percent change from control values.

Lipoxygenase = test: Ex-Vivo Measurement of Lipoxygenase Inhibition in Orally Dosed Rats (LTB4 in A23187-stimulated blood); design: species or system Male Sprague Dawley rats; details: 10 mg/kg, p.o.
Protocol: 2. Ex-Vivo Measurement of Lipoxygenase Inhibition in Orally Dosed Rats
After an interval of 3 or 6 hours, the rats were anesthetized with metofane (n=4/group) and blood collected in heparinized tubes. White blood cell counts and differentials were made. One ml of blood from each animal was placed in a 5 ml plastic tube in a shaker bath at 37° C. A23187 at a final concentration of 10 μM was added to the blood and the blood vortexed and incubated for 15 min at 37° C. with gentle shaking. Incubation was terminated by vortexing sample and centrifuging immediately at 1200× G for 15 min at 4° C. The plasma was transferred to 15 ml plastic tubes each containing 8 ml of methanol to precipitate protein followed by vortexing. The samples were stored at -70° C. overnight and the next day the samples were centrifuged at 800× G for 15 min to pellet the precipitate. The samples were dried in a Savant SpeedVac Concentrator Model SVC 200H and reconstituted to the original volume with cold RIA or ELISA buffer. The reconstituted samples were stored at -70° C. until assayed. The assay for LTB4 was performed according to the directions of the ^3 H!RIA kit or ELISA kit (Seragen). The total metabolite level in 1 ml of blood is calculated and reported as ng/10^6 neutrophils. Significance is determined by a one-way analysis of variance with LSD comparisons to control (p≤0.05).

LTB4 = test: Reverse Passive Arthus Reaction (pleurisy), LTB4 in pleural exudate; assay type: in vivo, male Lewis rats; details: 25 mg/kg, p.o.
Protocol: 3. Reverse Passive Arthus Reaction
A reverse passive Arthus reaction is induced in the pleural cavity of male Lewis rats (150-200 g; fasted overnight prior to use) by the intravenous administration of bovine serum albumin (BSA; 4 mg/0.2 ml) followed 30 minutes later by the injection of rabbit anti-BSA (1 mg/2.0 ml; lyophilized IgG fraction; Organon Teknika, West Chester, Pa.) into the right pleural space under halothane anesthesia. Drugs or vehicle (0.5% Tween-80) control are administered orally in a volume of 1 ml/100 g body weight at 1 hour prior to the anti-BSA. Animals are sacrificed at either the time of peak eicosanoid production (i.e. 5 minutes after anti-BSA for immunoreactive T×B2, 10 minutes for immunoreactive LTB4, 20 minutes for immunoreactive LTC4) or at the time of peak neutrophil infiltration (4 hours after anti-BSA) by CO2 inhalation. The pleural cavity is then exposed, the fluid exudate removed by gentle vacuum aspiration and the volume of exudate is recorded. For the determination of cellular infiltration, the pleural cavity is rinsed with 3 ml of 0.1% EDTA in sterile saline, and the recovered wash is pooled with the exudate. Cell number is determined on a model ZBI Coulter counter. For determination of eicosanoid production, undiluted pleural exudate is microfuged and the supernatant is extracted with ethanol (8-10 times volume). Extracts are either stored at -20° C., or are evaporated to dryness under a stream of N2 and reconstituted in radioimmunoassay (RIA) buffer.
Eicosanoids are quantitated by RIA according to the procedure specified by the RIA kit manufacturer (Advanced Magnetics, Cambridge, MA). Briefly, 100 μl of ^3 H-labeled eicosanoid and 100 μl of specific antibody are sequentially added to 100 μl of extracted pleural exudate in BGG-phosphate buffer which contains 0.01M phosphate, 0.1% bovine gamma globulin and 0.1% sodium azide at pH 7.0. Antibody-bound eicosanoid is separated from unbound eicosanoid by the addition of 750 μl of dextran (0.4%)-coated charcoal (Norit A) containing 0.1% sodium azide. The mixture is centrifuged at 2000 RPM at 5° C. for 15 minutes to pellet the charcoal and adsorbed unbound eicosanoid. Antibody-bound labeled eicosanoid is quantitated by counting in a liquid scintillation counter, and is correlated to concentration by a standard curve.

LDL [1] = details: in words; cited from earlier work
LDL [2] = details: in words; cited from earlier work; remark: listed apart in the source
atherosclerotic lesions = details: WHHL rabbits, in words; cited from earlier work

SMILES	pIC50 (Low Density Lipoprotein)	inhibition at 1 µM (5-Lipoxygenase)	inhibition at 10 µM (5-Lipoxygenase)	% Inhibition of LTB4 (Lipoxygenase; pretreatment period 3 hr)	% Inhibition of LTB4 (Lipoxygenase; pretreatment period 6 hr)	% Inhibition of LTB4 Synthesis (LTB4)	other results
Cc1oc(-c2ccccc2)nc1COc1ccc(CN(O)C(N)=O)cc1Cl [Example 2, 1-3-Chloro-4-(5-methyl-2-phenyl-oxazol-4-ylmethoxy)-benzyl!-1-hydroxy-urea]	6.25	31%	–	68%	72%	–	–
COc1cc(CN(O)C(N)=O)ccc1OCc1nc(-c2ccccc2)oc1C [Example 4, 1-Hydroxy-1-3-methoxy-4-(5-methyl-2-phenyl-oxazol-4-ylmethoxy)-benzyl!-urea]	6.09	–	81%	–	–	–	–
CC(C)(Sc1cc(C(C)(C)C)c(O)c(C(C)(C)C)c1)Sc1cc(C(C)(C)C)c(O)c(C(C)(C)C)c1 [Probucol]	–	–	–	–	–	–	inhibition of Cu^+2 mediated oxidative modification of LDL (LDL [1]): inhibits; inhibition of cell mediated oxidative modification of LDL (LDL [2]): inhibits; inhibition of formation of atherosclerotic lesions (atherosclerotic lesions): inhibit the formation of atherosclerotic lesions

Further lines, with some results ahead:

pIC50 (Low Density Lipoprotein)	inhibition at 1 µM (5-Lipoxygenase)	inhibition at 10 µM (5-Lipoxygenase)	SMILES	% Inhibition of LTB4 (Lipoxygenase; pretreatment period 3 hr)	% Inhibition of LTB4 (Lipoxygenase; pretreatment period 6 hr)	% Inhibition of LTB4 Synthesis (LTB4)	other results
–	–	80%	Cc1oc(-c2ccccc2)nc1COc1ccc(CN(O)C(N)=O)c(Cl)c1 [Example 3, 1-2-Chloro-4-(5-methyl-2-phenyl-oxazol-4-ylmethoxy)-benzyl!-1-hydroxy-urea]	40%	–	26%	–
–	47%	–	Cc1oc(-c2ccccc2)nc1COc1ccc(CN(O)C(N)=O)cc1F [Example 5, 1-3-Fluoro-4-(5-methyl-2-phenyl-oxazol-4-ylmethoxy)-benzyl!-1-hydroxy-urea]	66%	68%	28%	–
5.96	71%	–	NC(=O)N(O)Cc1ccc(OCc2csc(-c3ccc(Cl)cc3)n2)cc1 [Example 14, 1-4-2-(4-chloro-phenyl)-thiazol-4-ylmethoxy!-benzyl!-1-hydroxy-urea]	–	–	–	–
